Test [1] addresses T1, full-length human CSF-1R receptor (Homo sapiens, UniProt P07333).
T1 construct: transfected with the full-length human CSF-1R receptor cloned in house; expressed in transfected cells; host or cells: HEK293H (Invitrogen Cat. #11631017)
Nature of the test: In vitro inhibition of CSF-1R receptor tyrosine phosphorylation in transfected HEK293H cells stimulated with MCSF. It is filed as cell-based. To be noted: HEK293-H, tested at about 1 μM, read-out: pCSF1R percent inhibition. Here is the method:
The lysate was then transferred to total CSF-1R antibody coated 96-well plates that had already been blocked with 3% Blocker A from Mesoscale discovery (MSD) for 2 hours and washed afterwards. Lysates were incubated overnight at 4° C. and the plates were then washed 4× with MSD Tris Wash Buffer. […] The plates were read on the Sector 6000 instrument (MSD). Raw data was imported in Abase and EC50s calculated with XL-fit data analysis software.

The target in test [2] is T2, kinase domain of PDGFRβ (Homo sapiens, UniProt P09619).
T2 construct: The kinase domain of PDGFRβ was assayed in 50 mM Hepes; purchased Invitrogen P3082
Nature of the test: Inhibition of PDGFRb kinase signaling in an in vitro biochemical assay (alphascreen). To be noted: tested at about 1 μM; for inhibition at 1 µM: read-out: PDGFRβ percent inhibition. On the technique in general: Bead proximity is the source of the signal in Alpha formats.

Test [3] addresses T3, cytoplasmic domain of the human CSF-1R (Homo sapiens, UniProt P07333).
T3 construct: Recombinant protein corresponding to the cytoplasmic domain of the human CSF-1R; purchased Invitrogen Corporation, Carlsbad, Calif; PV3249
T3 sequence (P07333 539-972 limits assumed): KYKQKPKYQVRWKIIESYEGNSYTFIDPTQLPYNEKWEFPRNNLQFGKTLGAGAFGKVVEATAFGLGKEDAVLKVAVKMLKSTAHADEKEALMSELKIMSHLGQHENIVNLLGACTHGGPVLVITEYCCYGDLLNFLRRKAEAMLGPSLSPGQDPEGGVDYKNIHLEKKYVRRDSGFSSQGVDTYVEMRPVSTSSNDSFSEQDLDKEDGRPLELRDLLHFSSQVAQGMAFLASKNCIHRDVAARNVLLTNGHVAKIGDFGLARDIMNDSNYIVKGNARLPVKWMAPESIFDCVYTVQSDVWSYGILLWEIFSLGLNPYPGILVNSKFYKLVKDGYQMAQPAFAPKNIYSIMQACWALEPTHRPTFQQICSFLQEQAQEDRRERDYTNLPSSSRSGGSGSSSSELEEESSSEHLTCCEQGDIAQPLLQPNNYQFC
Nature of the test: In vitro kinase assay for colony stimulating factor-1 receptor (AlphaScreen). To be noted: tested at about 1 μM, read-out: CSF-1R percent inhibition. It is filed as biochemical. The gist of the method: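 Tyrosine phosphorylation of a peptide substrate by 4 nM recombinant cytoplasmic-domain enzyme is measured at 1 μM ATP in Mn2+/Mg2+-containing Hepes buffer, pH 7.5. Detection uses PT66 AlphaScreen beads after overnight incubation.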

For test [4], the system named is MNFS60 (murine AML cells). As to the kind of experiment: Cell viability assay in MCSF dependent MNFS60 cells (Cell Titer Glo). It is filed as cell-based. To be noted: Mus musculus, tested at about 1 μM, read-out: M-NFS-60 CP percent inhibition. The gist of the method:
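Compounds were serially diluted 3-fold in DMSO to 500× final and added to cells with MCSF at 10 ng/ml final. After 72 hrs at 37° C. under 5% CO2, viable cells were quantified by CellTiter-Glo luminescence; triplicate wells gave EC50 values by curve fitting.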

Test [5] has as its target T4, kinase domain of cKIT (Homo sapiens, UniProt P10721).
T4 construct: The kinase domain of cKIT was assayed in 50 mM Hepes; purchased Upstate 14-559
As to the kind of experiment: Inhibition of cKIT kinase signaling in an in vitro biochemical assay (alphascreen). To be noted: tested at about 1 μM; for inhibition at 1 µM: read-out: cKit percent inhibition.

Where two headings read alike, the source gives them in different places.

T2 sequence (P09619 600-962 limits assumed): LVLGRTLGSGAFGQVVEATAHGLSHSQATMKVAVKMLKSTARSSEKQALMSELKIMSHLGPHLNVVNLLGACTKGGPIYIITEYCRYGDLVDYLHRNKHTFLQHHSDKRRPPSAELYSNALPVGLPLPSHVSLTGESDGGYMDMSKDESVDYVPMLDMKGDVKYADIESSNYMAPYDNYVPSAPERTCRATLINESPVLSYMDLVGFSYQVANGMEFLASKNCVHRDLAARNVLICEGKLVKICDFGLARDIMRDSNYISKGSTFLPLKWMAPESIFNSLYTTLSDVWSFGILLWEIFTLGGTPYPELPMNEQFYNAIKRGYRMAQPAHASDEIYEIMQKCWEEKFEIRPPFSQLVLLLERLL
T1 sequence (P07333 20-972): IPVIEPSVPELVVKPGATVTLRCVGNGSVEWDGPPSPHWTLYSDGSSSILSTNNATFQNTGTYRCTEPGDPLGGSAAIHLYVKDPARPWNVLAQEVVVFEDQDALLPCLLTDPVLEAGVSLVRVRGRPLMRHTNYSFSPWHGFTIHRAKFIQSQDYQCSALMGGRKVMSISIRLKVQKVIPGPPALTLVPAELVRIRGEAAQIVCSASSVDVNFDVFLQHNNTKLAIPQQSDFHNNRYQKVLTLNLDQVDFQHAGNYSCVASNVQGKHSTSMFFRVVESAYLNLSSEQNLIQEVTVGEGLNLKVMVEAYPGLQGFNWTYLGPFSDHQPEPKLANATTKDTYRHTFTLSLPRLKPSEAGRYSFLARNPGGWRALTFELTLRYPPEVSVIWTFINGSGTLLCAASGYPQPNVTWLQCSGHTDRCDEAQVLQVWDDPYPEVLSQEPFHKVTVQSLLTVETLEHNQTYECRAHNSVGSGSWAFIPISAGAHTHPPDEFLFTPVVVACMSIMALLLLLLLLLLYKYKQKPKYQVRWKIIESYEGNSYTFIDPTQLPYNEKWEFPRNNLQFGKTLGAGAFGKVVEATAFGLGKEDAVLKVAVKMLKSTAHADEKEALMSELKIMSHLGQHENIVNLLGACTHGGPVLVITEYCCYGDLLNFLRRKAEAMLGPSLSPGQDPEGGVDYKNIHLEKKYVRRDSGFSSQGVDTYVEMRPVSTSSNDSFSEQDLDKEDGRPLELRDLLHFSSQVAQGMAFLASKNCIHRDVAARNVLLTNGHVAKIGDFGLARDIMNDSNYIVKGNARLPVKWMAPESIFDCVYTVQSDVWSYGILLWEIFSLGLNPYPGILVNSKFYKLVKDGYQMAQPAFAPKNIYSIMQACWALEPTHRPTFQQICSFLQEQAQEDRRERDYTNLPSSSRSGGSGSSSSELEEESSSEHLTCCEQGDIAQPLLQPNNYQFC
T4 sequence (P10721 589-937 limits assumed): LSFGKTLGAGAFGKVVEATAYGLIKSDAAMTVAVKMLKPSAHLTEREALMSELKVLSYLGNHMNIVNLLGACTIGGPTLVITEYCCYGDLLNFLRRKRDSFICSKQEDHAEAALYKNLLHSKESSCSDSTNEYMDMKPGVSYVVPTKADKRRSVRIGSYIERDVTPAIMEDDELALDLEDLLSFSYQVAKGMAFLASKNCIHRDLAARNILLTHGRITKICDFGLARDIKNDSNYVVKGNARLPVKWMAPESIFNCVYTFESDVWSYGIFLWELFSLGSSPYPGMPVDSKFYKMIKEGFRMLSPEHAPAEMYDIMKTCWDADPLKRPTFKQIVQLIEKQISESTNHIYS

A word on the inhibition: it is the change of the read-out against control, counted positive when it falls. As for `CN(C)c1ncc(-c2cc(Oc3ccc4nc(N[C@@H]5CCCC[C@H]5O)sc4c3)ccn2)cn1` [Example 286, (1R,2R)-2-(6-(2-(2-(dimethylamino)pyrimidin-5-yl)pyridin-4-yloxy)benzo[d]thiazol-2-ylamino)cyclohexanol], the inhibition at 1 µM amounted to 94% in test [1] (compounds of Table 3); 0% in test [2] (compounds of Table 3); 100% in test [3] (compounds of Table 3); 71% in test [4] (compounds of Table 3); 23% in test [5] (compounds of Table 3).

Consider `CNC(=O)c1cc(Oc2ccc3nc(NC4CCCC(C)C4)sc3c2)ccn1` (stereo not shown) [Compound 136, 4-[2-(3-Methyl-cyclohexyl-amino)-benzothiazol-6-yloxy]-pyridine-2-carboxylic acid methylamide], for which the inhibition at 1 µM in test [1] (HEK293H cells) is 97%; in test [2] it was 84%; in test [3], 100%; in test [4] (MNFS60 cells) it was 100%; in test [5], 88%.

For `CNC(=O)c1cc(Oc2ccc3nc(NCc4ccc(Cl)cc4Cl)sc3c2)ccn1` [Compound 130, 4-[2-(2,4-Dichloro-benzylamino)-benzothiazol-6-yloxy]-pyridine-2-carboxylic acid methylamide], the inhibition at 1 µM in test [1] (HEK293H cells) was 85%; in test [2], 25%; in test [3], 99%; in test [4] (MNFS60 cells), 72%; in test [5], 87%.

On to `CCc1nc(-c2cc(Oc3ccc4nc(N[C@@H](C)C5CCCCC5)sc4c3)ccn2)[nH]c1C` [Example 270, (S)-N-(1-cyclohexylethyl)-6-(2-(4-ethyl-5-methyl-1H-imidazol-2-yl)pyridin-4-yloxy)benzo[d]thiazol-2-amine], for which the inhibition at 1 µM in test [1] (compounds of Table 3) was determined as 74%; in test [2] (compounds of Table 3) it was 11%; in test [3] (compounds of Table 3), 98%; in test [4] (compounds of Table 3) it was 50%; in test [5] (compounds of Table 3), 21%.

For `Nc1ccc(-c2cc(Oc3ccc4nc(N[C@@H]5CCCC[C@H]5O)sc4c3)ccn2)cn1` [Example 261, (1R,2R)-2-(6-(6'-amino-2,3'-bipyridin-4-yloxy)benzo[d]thiazol-2-ylamino)cyclohexanol], the inhibition at 1 µM came to 98% in test [1] (compounds of Table 3); 30% in test [2] (compounds of Table 3); 100% in test [3] (compounds of Table 3); 100% in test [4] (compounds of Table 3); 25% in test [5] (compounds of Table 3).

Take `O[C@@H]1CCCC[C@H]1Nc1nc2ccc(Oc3ccnc(-c4ccc(CN5CCOCC5)cc4)c3)cc2s1` [Cmpd 168, (1R,2R)-2-(6-(2-(4-(morpholinomethyl)phenyl)pyridin-4-yloxy)benzo[d]thiazol-2-ylamino)cyclohexanol]: the inhibition at 1 µM is 99% in test [1] (compounds of Table 3); 43% in test [2] (compounds of Table 3); 100% in test [3] (compounds of Table 3); 100% in test [4] (compounds of Table 3); 40% in test [5] (compounds of Table 3).

Take `CNC(=O)c1cc(Oc2ccc3nc(NCc4ccc(OC)c(OC)c4Cl)oc3c2)ccn1` [Compound 117, 4-[2-(2-Chloro-3,4-dimethoxy-benzylamino)-benzooxazol-6-yloxy]-pyridine-2-carboxylic acid methylamide]: the inhibition at 1 µM in test [1] (HEK293H cells) came out at 88%; in test [2] it was 0%; in test [3], 100%; in test [4] (MNFS60 cells), 61%; in test [5], 96%.

Take `O[C@@H]1CCCC[C@H]1Nc1nc2ccc(Oc3ccnc(-c4cnn(CCF)c4)c3)cc2s1` [Example 259, (1R,2R)-2-(6-(2-(1-(2-fluoroethyl)-1H-pyrazol-4-yl)pyridin-4-yloxy)benzo[d]thiazol-2-ylamino)cyclohexanol]: the inhibition at 1 µM in test [1] (compounds of Table 3) stood at 98%; in test [2] (compounds of Table 3), 6%; in test [3] (compounds of Table 3) it was 100%; in test [4] (compounds of Table 3), 100%; in test [5] (compounds of Table 3), 24%.

For `CNC(=O)c1cc(Oc2ccc3nc(N[C@@H]4c5ccccc5C[C@@H]4O)oc3c2)ccn1` [Compound 50, 4-[2-((1R,2S)-2-Hydroxy-indan-1-ylamino)-benzooxazol-6-yloxy]-pyridine-2-carboxylic acid methylamide], the inhibition at 1 µM in test [1] (compounds of Table 4) is 99%; in test [2] (compounds of Table 3) it was 14%; in test [2] (compounds of Table 4), 14%; in test [2], 8%; in test [3] (compounds of Table 3) it was 99%; in test [3] (compounds of Table 4) it was 100%. Also, the inhibition at 1 µM in test [3] amounted to 56%; in test [4] (compounds of Table 3), 18%; in test [4] (compounds of Table 4), 100%; in test [5] (compounds of Table 3) it was 13%; in test [5] (compounds of Table 4), 10%; in test [5] it was 59%.

Regarding `CNC(=O)c1cc(Oc2ccc3nc(N[C@@H]4CCCC[C@H]4O)sc3c2)ccn1` [Compound 157, 4-[2-((1R,2R)-2-Hydroxy-cyclohexylamino)-benzothiazol-6-yloxy]-pyridine-2-carboxylic acid methylamide], the inhibition at 1 µM in test [1] (HEK293H cells) amounted to 99%; in test [3], 100%; in test [4] (MNFS60 cells), 100%. The PDGFRβ percent inhibition in test [2] was found to be 20%. This molecule gave a cKit percent inhibition in test [5] of 20%.

As for `CNC(=O)c1cc(Oc2ccc3nc(N[C@H]4CCCN(C(=O)C5CCCC5)C4)sc3c2)ccn1` [Example 335, (S)-4-(2-(1-(cyclopentanecarbonyl)piper-idin-3-ylamino)benzo[d]thiazol-6-yloxy)-N-methylpicolinamide], the inhibition at 1 µM in test [1] (HEK293H cells) is 50%; in test [2], 0%; in test [3], 100%; in test [4] (MCSF dependent MNFS60 cells), 57%; in test [5] it was 21%.

As for `CNC(=O)c1cc(Oc2ccc3nc(Nc4cccc(OC)c4)sc3c2)ccn1` [Compound 32], the inhibition at 1 µM is 93% in test [1] (compounds of Table 3); 11% in test [2] (compounds of Table 3); 100% in test [3] (compounds of Table 3); 65% in test [4] (compounds of Table 3); 45% in test [5] (compounds of Table 3).

For the molecule `CNC(=O)c1cc(Oc2ccc3nc(N[C@H](C)C4CCCCC4)sc3c2)ccn1` [Compound 138, 4-[2-((R)-1-Cyclohexyl-ethylamino)-benzothiazol-6-yloxy]-pyridine-2-carboxylic acid methylamide], the inhibition at 1 µM turned out to be 88% in test [1] (HEK293H cells); 93% in test [2]; 99% in test [3]; 100% in test [4] (MNFS60 cells); 93% in test [5].

`CC(C)C[C@H](CO)Nc1nc2ccc(Oc3ccnc(-c4cnn(C)c4)c3)cc2s1` [Example 355, (R)-4-methyl-2-(6-(2-(1-methyl-1H-pyrazol-4-yl)pyridin-4-yloxy)benzo[d]thiazol-2-ylamino)pentan-1-ol]: the inhibition at 1 µM in test [1] (HEK293H cells) was 99%; in test [2], 27%; in test [3] it was 100%; in test [4] (MCSF dependent MNFS60 cells), 100%; in test [5], 27%.

Take `CNC(=O)c1cc(Oc2ccc3nc(N[C@@H]4C[C@H]5CC[C@@H]4C5)sc3c2)ccn1` [Compound 128]: the inhibition at 1 µM in test [1] (compounds of Table 3) turned out to be 88%; in test [2] (compounds of Table 3), 20%; in test [3] (compounds of Table 3), 100%; in test [4] (compounds of Table 3) it was 82%; in test [5] (compounds of Table 3) it was 29%.

These data come from patent publication US8173689B2 (Novartis AG, priority 2006, dated 2012).
